# pIC50, pKi: −log10 of the molar value.
# How the values were obtained:
# KB = test: Cytotoxicity against human KB cells assessed as cell growth inhibition; format: functional, cell-based
# L1210 = test: Cytotoxicity against mouse L1210 cells assessed as cell growth inhibition; format: functional, cell-based
# SAOS-2 = test: Cytotoxicity against human SAOS-2 cells assessed as cell growth inhibition incubated for 48 hrs by microplate reader based analysis; format: functional; conditions: SAOS-2, 48 h
# MG-63 = test: Cytotoxicity against human MG-63 cells assessed as cell growth inhibition incubated for 48 hrs by microplate reader based analysis; format: functional; conditions: MG-63, 48 h
# U2OS = test: Cytotoxicity against human U2OS cells assessed as cell growth inhibition incubated for 48 hrs by microplate reader based analysis; format: functional
# [1] = Cytotoxicity against human SOSP-9607 cells assessed as cell growth inhibition incubated for 48 hrs by microplate reader based analysis; format: functional; conditions: SOSP-9607, 48 h
# [2] = Toxicity in mouse assessed as lethal dose; conditions: in vivo
# [3] = Displacement of [3H]-naloxone from opiate receptor in rat cortical brain membrane assessed as inhibition constant incubated for 30 mins by liquid scintillation counter analysis; format: cell membranes
# P388 = test: Cytotoxicity against mouse P388 cells assessed as effective dose; format: functional; conditions: read-out: ED50 (the source's name)
# [4] = target: T1, Xanthine dehydrogenase/oxidase (Homo sapiens, UniProt P47989); test: Inhibition of xanthine oxidase (unknown origin) at 10 uM using xanthine as substrate
# [5] = Toxicity in Artemia salina assessed as mortality at 10 ug/ml measured after 24 hrs by microscopic analysis; conditions: at 10 µg/mL, read-out: Activity
# [6] = target: Prostaglandin G/H synthase 1 (Homo sapiens) (UniProt P23219); test: Inhibition of COX-1 (unknown origin) using arachidonic acid as substrate at 100 uM preincubated for 5 mins followed by substrate addition measured after 15 mins by absorbance based analysis relative to control; conditions: time 20.0 min
# [7] = target: Prostaglandin G/H synthase 2 (Homo sapiens) (UniProt P35354); test: Inhibition of COX-2 (unknown origin) using arachidonic acid as substrate at 100 uM preincubated for 5 mins followed by substrate addition measured after 15 mins by absorbance based analysis relative to control; conditions: time 20.0 min
# [8] = target: Polyunsaturated fatty acid 5-lipoxygenase (Homo sapiens) (UniProt P09917); test: Inhibition of 5-LOX (unknown origin) using arachidonic acid as substrate at 100 uM preincubated for 5 mins followed by substrate addition measured after 15 mins by absorbance based analysis relative to control; conditions: time 20.0 min
# [9] = Antioxidant activity assessed as DPPH radical scavenging activity; format: functional
# [10] = Inhibition of urease (unknown origin); design: species or system Homo sapiens
# [11] = target: T1, Xanthine dehydrogenase/oxidase; test: Inhibition of xanthine oxidase (unknown origin)
# [12] = test system: Mycobacterium tuberculosis; test: Antimycobacterial activity against Mycobacterium tuberculosis H37Rv ATCC 27294 assessed as inhibition of bacterial growth by microplate alamar blue assay; format: functional
# B16 = test: Cytotoxicity against mouse B16 cells assessed as cell growth inhibition measured after 72 hrs by MTT assay; format: functional, cell-based; conditions: B16, 72 h
# [13] = Cytotoxicity against multidrug resistant human VJ300 cells expressing P-gp assessed as cell growth inhibition measured after 72 hrs by MTT assay; format: functional, cell-based; conditions: VJ-300, 72 h
# [14] = Cytotoxicity against vincristine resistant human VJ300 cells assessed as cell growth inhibition; format: functional, cell-based; conditions: VJ-300
# N2a = test: Neuroprotective activity against paraquat induced mouse Neuro2a cells assessed as reduction in cell viability at 1 uM pretreated for 1 hr followed by paraquat addition measured after 24 hrs by MTT method relative to control; format: functional; conditions: time 25 hrs
# Cholinesterase = Cholinesterase (Homo sapiens, UniProt P06276); test: Inhibition of human BChE
# [15] = Induction of nitric oxide production in Rabbit aortic endothelial cell at 0.1 ug/ml measured after 48 hrs by […] analysis; format: functional, Oryctolagus cuniculus; conditions: dose 0.1 µg/ml
# B16-F10 = test: Induction of nitric oxide production in mouse B16-F10 cells at 1 ug/ml measured after 48 hrs by […] analysis; format: functional; conditions: dose 1 µg/ml
# Plasmodium falciparum [16] = test: Antiplasmodial activity against chloroquine-resistant Plasmodium falciparum W2 assessed as cell growth inhibition incubated for 24 hrs by [3H]-hypoxanthine based scintillation counter analysis; format: functional, organism-based
# Plasmodium falciparum [17] = test: Antiplasmodial activity against chloroquine-sensitive Plasmodium falciparum 3D7 assessed as cell growth inhibition incubated for 24 hrs by [3H]-hypoxanthine based scintillation counter analysis; format: functional, organism-based
# Acetylcholinesterase = Acetylcholinesterase (Homo sapiens, UniProt P22303); test: Inhibition of human acetylcholinesterase
# [18] = Inhibition of human beta-secretase
# [19] = target: Cyclin-dependent kinase 4 (Homo sapiens, UniProt P11802); test: Inhibition of CDK4 (unknown origin)
# Corynebacterium xerosis = test: Antibacterial activity against Corynebacterium xerosis assessed as bacterial growth inhibition; format: functional
# [20] = test system: Trichophyton mentagrophytes; test: […] activity against Trichophyton mentagrophytes assessed as […]; format: functional
# [21] = Antagonist activity at alpha-adrenergic receptor in rat aortic strips assessed as receptor mediated adrenolytic activity; conditions: read-out: pA2 (converted)
# [22] = Antagonist activity at serotonin receptor in rat aortic strips assessed as receptor mediated anti-serotoninergic activity; conditions: read-out: pA2 (converted)
# Plasmodium falciparum [23] = test: Antimalarial activity against Plasmodium falciparum K1 infected in human RBC assessed as parasite growth inhibition measured after 48 hrs by optical microscopy; format: functional, organism-based; conditions: K1, Erythrocyte
# NIH3T3 = test: Cytotoxicity against mouse NIH3T3 cells assessed as cell growth inhibition incubated for 48 hrs by alamar blue dye-based fluorometric analysis; format: functional; conditions: NIH3T3, 48 h
# T1 sequence (P47989 whole entry): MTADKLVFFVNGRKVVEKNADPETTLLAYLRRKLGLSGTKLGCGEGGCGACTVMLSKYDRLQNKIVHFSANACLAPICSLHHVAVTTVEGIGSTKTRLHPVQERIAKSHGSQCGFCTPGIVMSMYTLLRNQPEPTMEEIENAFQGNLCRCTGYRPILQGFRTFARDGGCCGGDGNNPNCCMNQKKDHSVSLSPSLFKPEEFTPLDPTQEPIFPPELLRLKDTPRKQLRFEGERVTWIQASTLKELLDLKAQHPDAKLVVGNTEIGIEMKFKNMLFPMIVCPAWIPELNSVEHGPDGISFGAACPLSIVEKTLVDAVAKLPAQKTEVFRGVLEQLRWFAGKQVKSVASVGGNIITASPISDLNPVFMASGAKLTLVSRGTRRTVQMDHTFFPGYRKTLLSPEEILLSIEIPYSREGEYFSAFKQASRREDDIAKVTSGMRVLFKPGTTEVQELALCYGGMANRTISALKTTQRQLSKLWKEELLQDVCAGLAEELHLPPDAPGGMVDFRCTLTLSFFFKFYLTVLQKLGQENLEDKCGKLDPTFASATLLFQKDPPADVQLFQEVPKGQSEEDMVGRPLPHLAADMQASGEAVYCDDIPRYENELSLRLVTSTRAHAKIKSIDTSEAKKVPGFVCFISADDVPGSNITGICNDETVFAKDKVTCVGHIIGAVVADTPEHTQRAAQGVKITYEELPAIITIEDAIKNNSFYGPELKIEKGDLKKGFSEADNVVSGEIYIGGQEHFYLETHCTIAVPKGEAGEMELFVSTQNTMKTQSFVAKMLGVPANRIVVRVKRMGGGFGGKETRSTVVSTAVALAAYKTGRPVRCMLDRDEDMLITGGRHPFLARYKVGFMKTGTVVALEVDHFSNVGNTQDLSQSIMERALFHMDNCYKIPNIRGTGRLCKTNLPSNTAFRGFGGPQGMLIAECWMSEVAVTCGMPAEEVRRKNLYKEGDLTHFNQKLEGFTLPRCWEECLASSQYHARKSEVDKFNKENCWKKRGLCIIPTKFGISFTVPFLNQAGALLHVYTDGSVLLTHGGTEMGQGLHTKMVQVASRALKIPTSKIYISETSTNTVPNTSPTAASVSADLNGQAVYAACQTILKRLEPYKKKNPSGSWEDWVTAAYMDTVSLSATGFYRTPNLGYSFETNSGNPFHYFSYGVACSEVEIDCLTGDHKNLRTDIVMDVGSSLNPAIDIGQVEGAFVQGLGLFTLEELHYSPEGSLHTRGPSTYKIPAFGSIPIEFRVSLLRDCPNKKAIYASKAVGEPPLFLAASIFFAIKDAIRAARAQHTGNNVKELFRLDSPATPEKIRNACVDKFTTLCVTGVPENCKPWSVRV
# Sequence of Cholinesterase (P06276 whole entry): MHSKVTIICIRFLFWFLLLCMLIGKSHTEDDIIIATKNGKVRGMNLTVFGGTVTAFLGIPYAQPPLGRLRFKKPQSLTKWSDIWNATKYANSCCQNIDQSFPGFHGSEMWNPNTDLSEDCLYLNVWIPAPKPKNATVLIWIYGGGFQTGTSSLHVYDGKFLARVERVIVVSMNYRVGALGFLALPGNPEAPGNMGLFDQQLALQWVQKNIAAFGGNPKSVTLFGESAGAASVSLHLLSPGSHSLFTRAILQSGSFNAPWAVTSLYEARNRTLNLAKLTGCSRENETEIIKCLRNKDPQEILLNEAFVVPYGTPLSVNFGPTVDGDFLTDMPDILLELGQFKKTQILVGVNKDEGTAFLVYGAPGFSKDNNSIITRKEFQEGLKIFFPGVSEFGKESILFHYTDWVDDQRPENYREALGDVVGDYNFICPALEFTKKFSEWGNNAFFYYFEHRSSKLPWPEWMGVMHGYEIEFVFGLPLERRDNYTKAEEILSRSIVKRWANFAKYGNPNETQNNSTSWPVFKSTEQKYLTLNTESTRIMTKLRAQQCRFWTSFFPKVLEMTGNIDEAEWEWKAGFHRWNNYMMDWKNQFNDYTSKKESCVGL
# Sequence of Cyclin-dependent kinase 4 (P11802 whole entry): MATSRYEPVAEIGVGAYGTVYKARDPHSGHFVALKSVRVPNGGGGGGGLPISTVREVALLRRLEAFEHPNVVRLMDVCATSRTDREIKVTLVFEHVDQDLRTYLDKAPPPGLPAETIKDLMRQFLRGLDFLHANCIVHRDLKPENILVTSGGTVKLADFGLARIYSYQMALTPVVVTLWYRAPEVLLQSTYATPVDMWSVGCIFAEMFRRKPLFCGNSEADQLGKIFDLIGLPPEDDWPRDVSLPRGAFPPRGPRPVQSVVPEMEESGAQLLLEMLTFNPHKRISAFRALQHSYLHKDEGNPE
# Sequence of Polyunsaturated fatty acid 5-lipoxygenase (Homo sapiens) (P09917 whole entry): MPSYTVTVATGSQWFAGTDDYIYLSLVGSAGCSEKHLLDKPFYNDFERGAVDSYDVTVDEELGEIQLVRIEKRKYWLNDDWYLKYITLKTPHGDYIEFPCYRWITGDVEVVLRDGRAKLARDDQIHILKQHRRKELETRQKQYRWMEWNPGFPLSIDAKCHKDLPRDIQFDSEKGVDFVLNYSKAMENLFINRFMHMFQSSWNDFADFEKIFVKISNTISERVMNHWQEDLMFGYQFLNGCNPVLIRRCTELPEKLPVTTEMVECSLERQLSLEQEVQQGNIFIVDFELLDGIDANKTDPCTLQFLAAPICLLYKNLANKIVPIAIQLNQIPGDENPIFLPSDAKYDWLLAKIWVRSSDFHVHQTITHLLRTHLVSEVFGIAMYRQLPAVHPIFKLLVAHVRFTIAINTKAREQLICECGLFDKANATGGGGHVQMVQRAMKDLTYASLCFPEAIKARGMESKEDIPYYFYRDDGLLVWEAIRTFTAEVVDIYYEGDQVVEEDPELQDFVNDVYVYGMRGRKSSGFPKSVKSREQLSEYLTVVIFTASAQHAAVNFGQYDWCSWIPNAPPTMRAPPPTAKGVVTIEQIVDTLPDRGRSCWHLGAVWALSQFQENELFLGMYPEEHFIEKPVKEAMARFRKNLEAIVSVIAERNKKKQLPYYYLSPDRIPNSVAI
# Sequence of Prostaglandin G/H synthase 2 (Homo sapiens) (P35354 whole entry): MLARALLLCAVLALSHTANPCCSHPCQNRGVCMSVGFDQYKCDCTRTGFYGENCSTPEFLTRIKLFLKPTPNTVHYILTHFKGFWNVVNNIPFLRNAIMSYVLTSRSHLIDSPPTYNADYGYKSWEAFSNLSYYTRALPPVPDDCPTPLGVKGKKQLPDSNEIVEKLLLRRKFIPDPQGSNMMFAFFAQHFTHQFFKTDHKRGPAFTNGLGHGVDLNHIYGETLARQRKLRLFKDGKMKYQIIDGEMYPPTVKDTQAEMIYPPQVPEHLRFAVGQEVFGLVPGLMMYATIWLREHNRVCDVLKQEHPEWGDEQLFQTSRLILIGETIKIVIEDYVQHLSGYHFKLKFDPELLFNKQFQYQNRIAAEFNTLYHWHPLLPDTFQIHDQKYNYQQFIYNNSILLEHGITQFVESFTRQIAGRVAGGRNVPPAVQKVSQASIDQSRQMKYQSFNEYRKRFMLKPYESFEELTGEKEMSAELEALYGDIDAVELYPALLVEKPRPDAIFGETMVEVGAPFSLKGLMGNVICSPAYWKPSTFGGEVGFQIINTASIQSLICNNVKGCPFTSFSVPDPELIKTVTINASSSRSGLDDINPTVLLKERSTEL
# Sequence of Acetylcholinesterase (P22303 whole entry): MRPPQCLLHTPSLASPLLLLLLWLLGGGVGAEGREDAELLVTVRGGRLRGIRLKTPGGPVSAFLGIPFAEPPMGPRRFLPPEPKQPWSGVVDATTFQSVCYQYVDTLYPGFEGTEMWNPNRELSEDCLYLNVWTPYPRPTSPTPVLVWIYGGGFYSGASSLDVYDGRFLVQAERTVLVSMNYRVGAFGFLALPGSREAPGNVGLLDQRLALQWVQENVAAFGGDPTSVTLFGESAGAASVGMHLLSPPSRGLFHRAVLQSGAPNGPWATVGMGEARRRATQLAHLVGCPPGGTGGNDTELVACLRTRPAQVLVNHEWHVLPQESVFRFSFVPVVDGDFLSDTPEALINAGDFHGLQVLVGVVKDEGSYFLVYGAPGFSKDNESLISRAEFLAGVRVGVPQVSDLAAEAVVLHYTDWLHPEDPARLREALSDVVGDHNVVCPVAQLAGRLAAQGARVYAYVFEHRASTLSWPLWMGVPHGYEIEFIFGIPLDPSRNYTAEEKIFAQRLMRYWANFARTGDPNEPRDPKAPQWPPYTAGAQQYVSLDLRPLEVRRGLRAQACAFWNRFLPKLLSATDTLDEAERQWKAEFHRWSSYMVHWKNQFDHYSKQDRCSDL
# Sequence of Prostaglandin G/H synthase 1 (Homo sapiens) (P23219 whole entry): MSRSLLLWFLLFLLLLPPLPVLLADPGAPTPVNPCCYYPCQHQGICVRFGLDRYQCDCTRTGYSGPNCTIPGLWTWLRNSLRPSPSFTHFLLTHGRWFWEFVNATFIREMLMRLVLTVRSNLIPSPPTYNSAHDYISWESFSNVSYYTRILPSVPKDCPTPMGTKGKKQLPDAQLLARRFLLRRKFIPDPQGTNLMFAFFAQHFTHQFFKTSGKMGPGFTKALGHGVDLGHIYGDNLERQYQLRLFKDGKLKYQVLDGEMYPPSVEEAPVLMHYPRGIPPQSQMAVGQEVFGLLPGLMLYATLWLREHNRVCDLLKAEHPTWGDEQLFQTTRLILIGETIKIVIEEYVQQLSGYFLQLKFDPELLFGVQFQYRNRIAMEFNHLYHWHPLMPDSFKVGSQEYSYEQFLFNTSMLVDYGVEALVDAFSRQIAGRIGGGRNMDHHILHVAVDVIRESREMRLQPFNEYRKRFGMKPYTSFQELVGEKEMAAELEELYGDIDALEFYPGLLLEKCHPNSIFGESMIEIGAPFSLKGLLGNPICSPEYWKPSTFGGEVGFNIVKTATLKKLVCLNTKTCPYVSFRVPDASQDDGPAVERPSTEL
compound,measurement,setting,value
CC1CC2C[C@]34C(=O)CCCN3CCC[C@@]2(O)C(=O)C14 (stereo partly specified),IC50,KB,> 10 µg/mL
same,IC50,L1210,> 10 µg/mL
COC(=O)C1=C2Nc3c(OC)cccc3[C@]23CC[N+]2(C)C[C@H](C(C)=O)[C@H]1C[C@H]32 (stereo partly specified),pIC50,SAOS-2,5.04
same,pIC50,MG-63,5.04
same,pIC50,U2OS,5.04
same,pIC50,[1],5.04
C[N@@+]12CC[C@]34c5ccccc5N5/C=C6\[C@@H]7N(/C=C(\[C@H]53)[C@H](C[C@@H]41)/C(=C\CO)C2)c1ccccc1[C@@]71CC[N@@+]2(C)C/C(=C/CO)[C@H]6C[C@@H]12,LD,[2],0.8 mg/kg
C=C1c2[nH]c3ccccc3c2CN2CC[C@H]1/C(=C\C)C2 [APPARICINE],pKi,[3],5.58
same,EC50,P388,3.8 µg/mL
same,pIC50,[4],6.19
COc1cc([C@H]2Oc3ccc4[nH]cc5c4c3[C@H]2C(=O)NCC5=O)ccc1O,"mortality at 24 h, 10 ug/ml",[5],90%
C/C=C1\CN2CC[C@@H]1[C@](CO)(C(=O)OC)c1[nH]c3ccccc3c1C2,inhibition,[6],49.4%
same,inhibition,[7],63.7%
same,inhibition,[8],60.8%
same,pIC50,[9],4.61
same,pIC50,[10],4.49
same,pIC50,[11],< 4.00
C/C=C1/CN2CC[C@@H]1[C@](CO)(C(=O)OC)c1[nH]c3ccccc3c1C2,MIC,[12],> 128 µg/mL
C=C1CC[C@@]23CC[C@@]45C(C2)[C@]4(CCN13)c1cc(OC)ccc1N5C(=O)OC,IC50,B16,7.2 µg/mL
same,IC50,[13],4.6 µg/mL
COC(=O)[C@@]12COC[C@@H](O)[C@@]3(CO)[C@@H]1CCN3Cc1c2[nH]c2ccccc12,IC50,KB,7.76 µg/mL
same,IC50,[14],7.33 µg/mL
O=CC1=C[C@@]2(O)CC/C=C\CCCCN3CC[C@@H]1[C@]1(C[C@@H]4/C=C\CCCCN4[C@H]12)C3 [IRCINAL],IC50,KB,4.8 µg/mL
same,IC50,L1210,1.4 µg/mL
CC1(C)/C=C\N2C(=O)C3(O)C(O)CCN3C(=O)[C@@H]2Cc2c1[nH]c1ccccc21 (stereo partly specified),Activity,N2a,38.6%
COC(=O)[C@]12COCC[C@@H]3[C@H](c4c1[nH]c1ccccc41)N(C)CC[C@@H]32 [UNDULIFOLINE],pIC50,Cholinesterase,4.55
C=C1c2[nH]c3ccc(OC)cc3c2C2[C@@H](CC)C1CCN2C (stereo partly specified),Activity,[15],20.9 µM
same,Activity,B16-F10,41.1 µM
same,IC50,Plasmodium falciparum [16],0.75 µg/mL
same,IC50,Plasmodium falciparum [17],11.9 µg/mL
same,pIC50,Acetylcholinesterase,3.55
same,pIC50,Cholinesterase,4.62
same,pIC50,[18],3.74
C1=C\CCc2cc3c(o2)[C@@H]2N4CCCC/C=C\[C@H]4C[C@@]24CN(CCCC/1)CC[C@@H]34,IC50,L1210,1.3 µg/mL
same,pIC50,[19],4.60
same,MIC,Corynebacterium xerosis,11 µg/mL
same,MIC,[20],23 µg/mL
CN1CCc2ccccc2-c2cc(O)c(O)cc2C1,Kb,[21],0.02 µM
same,Kb,[22],3.02 µM
CC[C@@H]1C2CCN(C)C1c1c([nH]c3ccc(OC)cc13)C2=O (stereo partly specified),pIC50,Plasmodium falciparum [23],4.78
same,IC50,NIH3T3,> 50 µg/mL
